Among the data in ChEMBL document CHEMBL1137707, “First-principle, structure-based prediction of hepatic metabolic clearance values in human” (Eur J Med Chem, 2009) are CLhep predicted, logCL and CL values, retold here.

A short description of data set [1]: (§1) Hepatic clearance in human hepatocytes in absence of fetal calf serum.
The next data set concerns Hepatocyte. The description is as §1. Conditions: hepatocytes.

Take `C[C@]12C=CC(=O)C=C1CC[C@@H]1[C@@H]2[C@@H](O)C[C@@]2(C)[C@H]1CC[C@]2(O)C(=O)CO` [PREDNISOLONE]: in data set [1] (human hepatocytes), the CLhep predicted is 8.7 mL/min/kg. Further, the logCL in the data set on Hepatocyte amounted to 0.9395.
Turning to `COc1ccccc1OCCNCC(O)COc1cccc2[nH]c3ccccc3c12` (stereo unspecified) [CARVEDILOL], the CLhep predicted in data set [1] (hepatocytes) is 8.7 mL/min/kg. The compound further registered a logCL with Hepatocyte of 0.9395.
On to `CN1C(=O)CN=C(c2ccccc2)c2cc(Cl)ccc21` [DIAZEPAM], for which, in the data set with Hepatocyte, the logCL is recorded as -0.3665.
In the case of `COc1ccc2c(c1)c(CC(=O)O)c(C)n2C(=O)c1ccc(Cl)cc1` [INDOMETHACIN], the CLhep predicted in data set [1] (human hepatocytes) is 2.24 mL/min/kg. Also, the logCL in the data set on Hepatocyte is given as 0.3502.
The compound `CC(C(=O)O)c1cccc(Oc2ccccc2)c1` (stereo unspecified) [FENOPROFEN] gave a logCL in the data set with Hepatocyte of 0.2279.
As to `CN(C)CCCN1c2ccccc2Sc2ccc(Cl)cc21` [CHLORPROMAZINE], in the data set with Hepatocyte, the CL worked out at 8.6 mL/min/kg and the logCL was found to be 0.9345.
`CCN(CC)CC(=O)Nc1c(C)cccc1C` [LIDOCAINE] displayed a logCL in the data set with Hepatocyte of 1.1761.
With `O=C1Nc2ccc(Cl)cc2C(c2ccccc2Cl)=NC1O` (stereo unspecified) [LORAZEPAM], the CLhep predicted in data set [1] (human hepatocytes) is 1.1 mL/min/kg. In the data set on Hepatocyte, the logCL is listed as 0.0414.
On to `Cc1ncc2n1-c1ccc(Cl)cc1C(c1ccccc1F)=NC2` [MIDAZOLAM], for which the CLhep predicted in data set [1] (hepatocytes) is 6.6 mL/min/kg. The logCL with Hepatocyte is on record as 0.8195.
Regarding `CC(=O)CC(c1ccccc1)c1c(O)c2ccccc2oc1=O` (stereo unspecified) [WARFARIN], the CLhep predicted in data set [1] (human hepatocytes) is 0.16 mL/min/kg. Further, in the data set with Hepatocyte, the logCL is given as -0.7959.
For `Cc1c(C)c2c(c(C)c1O)CCC(C)(COc1ccc(CC3SC(=O)NC3=O)cc1)O2` (stereo unspecified) [TROGLITAZONE] the same measures were 9 mL/min/kg and 0.9542.
The matching figures for `C=CCN1CC[C@]23c4c5ccc(O)c4O[C@H]2C(=O)CC[C@@]3(O)[C@H]1C5` [NALOXONE]: 19.5 mL/min/kg and 1.29.
Regarding `Cn1c(=O)c2c(ncn2C)n(C)c1=O` [CAFFEINE], the CLhep predicted in data set [1] (human hepatocytes) was 1.4 mL/min/kg. This compound also came in with a logCL with Hepatocyte of 0.1461.
`CN1C2CCCC1CC(NC(=O)c1nn(C)c3ccccc13)C2` (stereo unspecified) [GRANISETRON]: the CLhep predicted in data set [1] (human hepatocytes) was 11 mL/min/kg. This compound showed a logCL in the data set with Hepatocyte of 1.0414.
With `CC(C)(C)NC[C@H](O)COc1nsnc1N1CCOCC1` [TIMOLOL], the CLhep predicted in data set [1] (hepatocytes) is 9.17 mL/min/kg. In the data set on Hepatocyte, this compound had a logCL of 0.9624.
As for `C[C@H]1C[C@@H]2[C@H]([C@@H](O)C[C@@]3(C)[C@H]2CC[C@]3(O)C(=O)CO)[C@@]2(C)C=CC(=O)C=C12` [METHYLPREDNISOLONE], the CLhep predicted in data set [1] (human hepatocytes) is 7.5 mL/min/kg. The compound also came in with a logCL in the data set with Hepatocyte of 0.8751.
As for `CN1C(C(=O)Nc2ccccn2)=C(O)c2sccc2S1(=O)=O` [TENOXICAM], in data set [1] (hepatocytes), the CLhep predicted was 0.073 mL/min/kg. The logCL in the data set with Hepatocyte is recorded as -1.1367.
As for `CC(C)(O)c1ccccc1CC[C@@H](SCC1(CC(=O)O)CC1)c1cccc(/C=C/c2ccc3ccc(Cl)cc3n2)c1` [MONTELUKAST], the CLhep predicted in data set [1] (human hepatocytes) was 1.27 mL/min/kg. For the same compound, the logCL in the data set with Hepatocyte is 0.1038.
In the data set with Hepatocyte, `CCCCC1=NC2(CCCC2)C(=O)N1Cc1ccc(-c2ccccc2-c2nnn[nH]2)cc1` [IRBESARTAN] returned a CL of 3.85 mL/min/kg and a logCL of 0.5855.
With `Cc1ccc(C)c(OCCCC(C)(C)C(=O)O)c1` [GEMFIBROZIL], the CLhep predicted in data set [1] (hepatocytes) was 3.09 mL/min/kg. The same compound returned a logCL in the data set on Hepatocyte of 0.49.
Turning to `COc1ccc([C@@H]2Sc3ccccc3N(CCN(C)C)C(=O)[C@@H]2OC(C)=O)cc1` [DILTIAZEM], the CLhep predicted in data set [1] (human hepatocytes) is 12.8 mL/min/kg. This compound also returned a logCL in the data set with Hepatocyte of 1.1072.
On to `COCCc1ccc(OCC(O)CNC(C)C)cc1` (stereo unspecified) [METOPROLOL], for which the CLhep predicted in data set [1] (human hepatocytes) was 12.2 mL/min/kg. The same compound had a logCL with Hepatocyte of 1.0846.
As to `O=C1CC2(CCCC2)CC(=O)N1CCCCN1CCN(c2ncccn2)CC1` [BUSPIRONE], the CLhep predicted in data set [1] (human hepatocytes) is 19.2 mL/min/kg. In the data set with Hepatocyte, this compound showed a logCL of 1.2833.
For `CCc1cccc2c3c([nH]c12)C(CC)(CC(=O)O)OCC3` (stereo unspecified) [ETODOLAC], in data set [1] (human hepatocytes), the CLhep predicted was 1.31 mL/min/kg. In the data set on Hepatocyte, this compound returned a logCL of 0.1173.
Regarding `Cc1cn([C@H]2C[C@H](N=[N+]=[N-])[C@@H](CO)O2)c(=O)[nH]c1=O` [ZIDOVUDINE], in data set [1] (human hepatocytes), the CLhep predicted is 12.4 mL/min/kg. The compound further had a logCL in the data set with Hepatocyte of 1.0934.
Turning to `CC(C)c1nc(CN(C)C(=O)N[C@H](C(=O)N[C@@H](Cc2ccccc2)C[C@H](O)[C@H](Cc2ccccc2)NC(=O)OCc2cncs2)C(C)C)cs1` [RITONAVIR], in data set [1] (human hepatocytes), the CLhep predicted is 1.2 mL/min/kg. In addition, the logCL in the data set on Hepatocyte is 0.0792.
Consider `O=C(O)Cc1ccccc1Nc1c(Cl)cccc1Cl` [DICLOFENAC], for which, in data set [1] (hepatocytes), the CLhep predicted was 7.33 mL/min/kg. The same compound displayed a logCL in the data set with Hepatocyte of 0.8651.
`CCCc1nn(C)c2c(=O)[nH]c(-c3cc(S(=O)(=O)N4CCN(C)CC4)ccc3OCC)nc12`: the logCL in the data set with Hepatocyte was found to be 0.7782.
As to `CCOc1ccc(NC(C)=O)cc1` [PHENACETIN], in the data set on Hepatocyte, the logCL is 1.2833.
Take `CCCCNC(=O)NS(=O)(=O)c1ccc(C)cc1` [TOLBUTAMIDE]: the CLhep predicted in data set [1] (hepatocytes) is 0.3 mL/min/kg. Also, the logCL in the data set with Hepatocyte was -0.5229.
As for `O=C(O)c1cc(-c2ccc(F)cc2F)ccc1O` [DIFLUNISAL], the CLhep predicted in data set [1] (hepatocytes) is 0.18 mL/min/kg. In addition, the logCL in the data set with Hepatocyte is listed as -0.7447.
For `Cn1c(=O)c2[nH]cnc2n(C)c1=O.O` [THEOPHYLLINE], the CLhep predicted in data set [1] (human hepatocytes) was 0.65 mL/min/kg. The logCL with Hepatocyte is on record as -0.1871.
The matching figures for `Cc1nccn1CC1CCc2c(c3ccccc3n2C)C1=O` (stereo unspecified) [ONDANSETRON]: 5.9 mL/min/kg and 0.7709.
